Results reported in PubChem BioAssay AID180 (DTP/NCI, 2004).
Several values for one entry are separate records, joined by “and”; a condition that tells them apart may be missing. Equal values may be shown once.

Test system: BDF1 mice, Adenocarcinoma 755 s.c., tumor weight T/C
Assay: NCI In Vivo Anticancer Drug Screen. Data for tumor model Adenocarcinoma 755 (subcutaneous) in B6D2F1 (BDF1) mice
Settings: endpoint: mean tumor weight, higher = larger tumour
How it was run: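 Tumor-bearing mice receive test compound while controls get vehicle alone. Antitumor effect is scored from survival or tumor dimensions as a T/C quotient.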

[1] = dose: 200.0 mg/kg/injection, schedule: Q01DX011 (sc), vehicle: steriod suspending solution
[2] = dose: 400.0 mg/kg/injection, schedule: Q01DX011 (sc), vehicle: steriod suspending solution
[3] = dose: 30.0 mg/kg/injection, schedule: Q01DX011 (ip), vehicle: carboxymethylcellulose (CMC)
[4] = dose: 15.0 mg/kg/injection, schedule: Q01DX011 (ip), vehicle: methylcellulose (MC)
[5] = dose: 31.0 mg/kg/injection, schedule: Q01DX011 (ip), vehicle: methylcellulose (MC)
[6] = dose: 62.0 mg/kg/injection, schedule: Q01DX011 (ip), vehicle: methylcellulose (MC)

SMILES: C[C@]12C[C@H](O)[C@H]3[C@@H](CCC4=CC(=O)CC[C@@]43C)[C@@H]1CC[C@@H]2C(=O)CF
- T/C (dose: 25.0 mg/kg/injection, schedule: Q01DX011 (sc), vehicle: steriod suspending solution): 121 % of control
- T/C [1]: 79 % of control
- T/C [2]: 79 % of control

SMILES: Cn1c(N)nc2n[nH]nc2c1=O
- T/C [3]: 105 % of control
- T/C (dose: 60.0 mg/kg/injection, schedule: Q01DX011 (ip), vehicle: carboxymethylcellulose (CMC)): 119 % of control
- T/C (dose: 100.0 mg/kg/injection, schedule: Q01DX011 (ip), vehicle: carboxymethylcellulose (CMC)): 98 % of control
- T/C (dose: 120.0 mg/kg/injection, schedule: Q01DX011 (ip), vehicle: carboxymethylcellulose (CMC)): 46 % of control
- T/C (dose: 240.0 mg/kg/injection, schedule: Q01DX011 (ip), vehicle: carboxymethylcellulose (CMC)): 97 % of control

SMILES: NC(=O)c1cc(N)nc(N)n1
- T/C [4]: 97 % of control
- T/C [5]: 106 % of control
- T/C [6]: 114 % of control
- T/C (dose: 125.0 mg/kg/injection, schedule: Q01DX011 (ip), vehicle: methylcellulose (MC)): 45 % of control

SMILES: C[C@]12CCC(=O)C=C1CC[C@@H]1[C@@H]2[C@@H](O)C[C@@]2(C)[C@H]1CC[C@]2(O)C(=O)CF
- T/C (dose: 50.0 mg/kg/injection, schedule: Q01DX011 (sc), vehicle: steriod suspending solution): 21 % of control
- T/C (dose: 100.0 mg/kg/injection, schedule: Q01DX011 (sc), vehicle: steriod suspending solution): 16 % of control
- T/C [1]: 6 % of control and 10 % of control
- T/C [2]: 7 % of control and 9 % of control
- T/C (dose: 600.0 mg/kg/injection, schedule: Q01DX011 (sc), vehicle: steriod suspending solution): 9 % of control

SMILES: CC(=O)OC1CCC(C2CCCCC2)CC1 (configuration not stated)
- T/C (dose: 29.0 mg/kg/injection, schedule: Q01DX011 (ip), vehicle: saline): 157 % of control
- T/C (dose: 57.0 mg/kg/injection, schedule: Q01DX011 (ip), vehicle: saline): 173 % of control
- T/C (dose: 57.0 mg/kg/injection, schedule: Q01DX011 (oral), vehicle: saline): 86 % of control
- T/C (dose: 113.0 mg/kg/injection, schedule: Q01DX011 (oral), vehicle: saline): 102 % of control
- T/C (dose: 225.0 mg/kg/injection, schedule: Q01DX011 (oral), vehicle: saline): 84 % of control

SMILES: CC(C)n1cnc2c(Cl)ncnc21
- T/C (dose: 4.0 mg/kg/injection, schedule: Q01DX011 (ip), vehicle: carboxymethylcellulose (CMC)): 101 % of control
- T/C (dose: 8.0 mg/kg/injection, schedule: Q01DX011 (ip), vehicle: carboxymethylcellulose (CMC)): 115 % of control
- T/C (dose: 16.0 mg/kg/injection, schedule: Q01DX011 (ip), vehicle: carboxymethylcellulose (CMC)): 92 % of control
- T/C (dose: 62.0 mg/kg/injection, schedule: Q01DX011 (ip), vehicle: carboxymethylcellulose (CMC)): 4 % of control and 11 % of control
- T/C (dose: 125.0 mg/kg/injection, schedule: Q01DX011 (ip), vehicle: carboxymethylcellulose (CMC)): 5 % of control and 8 % of control
- T/C (dose: 250.0 mg/kg/injection, schedule: Q01DX011 (ip), vehicle: carboxymethylcellulose (CMC)): 8 % of control

SMILES: CCn1cnc2c(=S)nc(N)[nH]c21
- T/C (dose: 0.44 mg/kg/injection, schedule: Q01DX011 (ip), vehicle: methylcellulose (MC)): 108 % of control
- T/C (dose: 0.88 mg/kg/injection, schedule: Q01DX011 (ip), vehicle: methylcellulose (MC)): 66 % of control
- T/C (dose: 1.75 mg/kg/injection, schedule: Q01DX011 (ip), vehicle: methylcellulose (MC)): 33 % of control
- T/C (dose: 3.5 mg/kg/injection, schedule: Q01DX011 (ip), vehicle: methylcellulose (MC)): 3 % of control

SMILES: C[N+](C)(C)c1ncnc2c1ncn2C1CCCO1 (configuration not stated)
- T/C (dose: 18.7 mg/kg/injection, schedule: Q01DX011 (ip), vehicle: saline): 100 % of control
- T/C (dose: 37.5 mg/kg/injection, schedule: Q01DX011 (ip), vehicle: saline): 5 % of control
- T/C (dose: 100.0 mg/kg/injection, schedule: Q01DX011 (ip), vehicle: saline): 2 % of control

SMILES: CC(=O)N(C(C)C)C(C)C
- T/C (dose: 5.0 mg/kg/injection, schedule: Q01DX011 (ip), vehicle: other): 95 % of control
- T/C (dose: 10.0 mg/kg/injection, schedule: Q01DX011 (ip), vehicle: other): 91 % of control

SMILES: Cn1c(N)c(C(=O)CCl)c(=O)n(C)c1=O
- T/C [3]: 66 % of control

SMILES: Cc1ccccc1Nc1cc(=S)nc(N)[nH]1
- T/C [4]: 122 % of control
- T/C [5]: 91 % of control
- T/C [6]: 92 % of control
- T/C (dose: 250.0 mg/kg/injection, schedule: Q01DX011 (ip), vehicle: methylcellulose (MC)): 84 % of control

SMILES: CCCOP(=S)(N1CC1)N1CC1
- T/C (dose: 3.3 mg/kg/injection, schedule: Q01DX011 (ip), vehicle: methylcellulose (MC)): 74 % of control
- T/C (dose: 6.8 mg/kg/injection, schedule: Q01DX011 (ip), vehicle: methylcellulose (MC)): 77 % of control
- T/C (dose: 13.5 mg/kg/injection, schedule: Q01DX011 (ip), vehicle: methylcellulose (MC)): 40 % of control

SMILES: NOCC(=O)O
- T/C (dose: 6.25 mg/kg/injection, schedule: Q01DX011 (ip), vehicle: water): 62 % of control
- T/C (dose: 12.5 mg/kg/injection, schedule: Q01DX011 (ip), vehicle: other): 54 % of control
- T/C (dose: 12.5 mg/kg/injection, schedule: Q01DX011 (ip), vehicle: water): 68 % of control and 70 % of control
- T/C (dose: 18.75 mg/kg/injection, schedule: Q01DX011 (ip), vehicle: other): 65 % of control
- T/C (dose: 25.0 mg/kg/injection, schedule: Q01DX011 (ip), vehicle: water): 29 % of control

SMILES: CN(C)c1ccc2nc3ccc(=[N+](C)C)cc-3sc2c1
- T/C (dose: 5.0 mg/kg/injection, schedule: Q01DX011 (ip), vehicle: carboxymethylcellulose (CMC)): 51 % of control
- T/C (dose: 5.24 mg/kg/injection, schedule: Q01DX011 (ip), vehicle: carboxymethylcellulose (CMC)): 69 % of control
- T/C (dose: 5.76 mg/kg/injection, schedule: Q01DX011 (ip), vehicle: carboxymethylcellulose (CMC)): 103 % of control
- T/C (dose: 10.0 mg/kg/injection, schedule: Q01DX011 (ip), vehicle: carboxymethylcellulose (CMC)): 99 % of control
- T/C (dose: 10.48 mg/kg/injection, schedule: Q01DX011 (ip), vehicle: carboxymethylcellulose (CMC)): 109 % of control
- T/C (dose: 11.53 mg/kg/injection, schedule: Q01DX011 (ip), vehicle: carboxymethylcellulose (CMC)): 97 % of control
- T/C (dose: 20.0 mg/kg/injection, schedule: Q01DX011 (ip), vehicle: carboxymethylcellulose (CMC)): 113 % of control
- T/C (dose: 20.95 mg/kg/injection, schedule: Q01DX011 (ip), vehicle: carboxymethylcellulose (CMC)): 100 % of control
- T/C (dose: 25.0 mg/kg/injection, schedule: Q01DX011 (ip), vehicle: carboxymethylcellulose (CMC)): 123 % of control
- T/C [3]: 103 % of control
- T/C (dose: 35.0 mg/kg/injection, schedule: Q01DX011 (ip), vehicle: carboxymethylcellulose (CMC)): 104 % of control
- T/C (dose: 40.0 mg/kg/injection, schedule: Q01DX011 (ip), vehicle: carboxymethylcellulose (CMC)): 68 % of control

SMILES: O=[N+]([O-])c1cc([N+](=O)[O-])c(NN(c2ccccc2)c2ccccc2)c([N+](=O)[O-])c1
- T/C (dose: 25.0 mg/kg/injection, schedule: Q01DX011 (ip), vehicle: other): 86 % of control

SMILES: CC(C)Cn1cnc2c(SCc3ccccc3[N+](=O)[O-])nc(N)nc21
- T/C (dose: 37.5 mg/kg/injection, schedule: Q01DX011 (ip), vehicle: methylcellulose (MC)): 42 % of control
- T/C (dose: 75.0 mg/kg/injection, schedule: Q01DX011 (ip), vehicle: methylcellulose (MC)): 97 % of control
- T/C (dose: 150.0 mg/kg/injection, schedule: Q01DX011 (ip), vehicle: methylcellulose (MC)): 62 % of control
- T/C (dose: 300.0 mg/kg/injection, schedule: Q01DX011 (ip), vehicle: methylcellulose (MC)): 14 % of control
